Results on 14 compounds are retold here after ChEMBL document CHEMBL3046893, “Antimicrobial screening of novel synthesized benzimidazole nucleus containing 4-oxo-thiazolidine derivatives” (2012).

Structures are written as SMILES. ≈ marks a conversion by molar mass, not a printed value.

Type in all cases: functional
The subject of one experiment is Pseudomonas aeruginosa. Description: Antibacterial activity against Pseudomonas aeruginosa MTCC 1688 after 24 to 48 hr by serial broth dilution method.
The next experiment relates to Escherichia coli. The experiment is described as follows: Antibacterial activity against Escherichia coli MTCC 443 after 24 to 48 hr by serial broth dilution method.
For another experiment, the system named is Staphylococcus aureus. Description: Antibacterial activity against Staphylococcus aureus MTCC 96 after 24 to 48 hr by serial broth dilution method.
Another experiment has as its system Candida albicans. Description: Antifungal activity against Candida albicans MTCC 227.
The subject of the next experiment is Aspergillus clavatus. Description: Antifungal activity against Aspergillus clavatus MTCC 1323.
The subject of another experiment is Aspergillus niger. The experiment is described as follows: Antifungal activity against Aspergillus niger MTCC 282.
The next experiment concerns Streptococcus pyogenes. Description: Antibacterial activity against Streptococcus pyogenes MTCC 442 after 24 to 48 hr by serial broth dilution method.

With `Cc1ccc2nc(-c3ccccc3N3C(=O)CSC3c3ccc([N+](=O)[O-])cc3[N+](=O)[O-])[nH]c2c1` (stereo unspecified), the MIC worked out at 250 µg/mL (≈ 526 µM) with Pseudomonas aeruginosa; 62.5 µg/mL (≈ 131 µM) with Escherichia coli; 62.5 µg/mL (≈ 131 µM) in the experiment on Staphylococcus aureus; 1000 µg/mL (≈ 2100 µM) against Candida albicans; 1000 µg/mL (≈ 2100 µM) against Aspergillus clavatus; 1000 µg/mL (≈ 2100 µM) in the experiment on Aspergillus niger. For the same compound, the MIC in the experiment on Streptococcus pyogenes (read-out: MIC) was determined as 1000 µg/mL (≈ 2100 µM).

Take `COC1=CC(=O)C[C@@H](C)[C@]12Oc1c(Cl)c(OC)cc(OC)c1C2=O` [GRISEOFULVIN]: the MIC in the experiment with Candida albicans came to 500 µg/mL (≈ 1420 µM); in the experiment with Aspergillus clavatus, 100 µg/mL (≈ 283 µM); in the experiment on Aspergillus niger, 100 µg/mL (≈ 283 µM).

Regarding `CC1(C)S[C@@H]2[C@H](NC(=O)[C@H](N)c3ccccc3)C(=O)N2[C@H]1C(=O)O` [AMPICILLIN], the MIC against Pseudomonas aeruginosa came out at 100 µg/mL (≈ 286 µM); with Escherichia coli, 100 µg/mL (≈ 286 µM); in the experiment with Staphylococcus aureus it was 250 µg/mL (≈ 715 µM); in the experiment with Streptococcus pyogenes (read-out: MIC), 100 µg/mL (≈ 286 µM).

Take `Cc1ccc2nc(-c3ccccc3N3C(=O)CSC3c3ccc(Cl)cc3)[nH]c2c1` (stereo unspecified): the MIC against Pseudomonas aeruginosa turned out to be 250 µg/mL (≈ 595 µM); in the experiment on Escherichia coli, 125 µg/mL (≈ 298 µM); in the experiment with Staphylococcus aureus, 100 µg/mL (≈ 238 µM); against Candida albicans, 500 µg/mL (≈ 1190 µM); with Aspergillus clavatus, 1000 µg/mL (≈ 2380 µM); with Aspergillus niger, 500 µg/mL (≈ 1190 µM). The minimal inhibitory concentration (MIC) in the experiment with Streptococcus pyogenes (read-out: MIC) turned out to be 62.5 µg/mL (≈ 149 µM).

`Cc1ccc2nc(-c3ccccc3N3C(=O)CSC3c3cccc([N+](=O)[O-])c3)[nH]c2c1` (stereo unspecified): the minimum inhibitory concentration (MIC) in the experiment on Pseudomonas aeruginosa amounted to 250 µg/mL (≈ 581 µM); in the experiment with Escherichia coli it was 25 µg/mL (≈ 58.1 µM); against Staphylococcus aureus it was 100 µg/mL (≈ 232 µM); against Candida albicans it was 100 µg/mL (≈ 232 µM); against Aspergillus clavatus it was 1000 µg/mL (≈ 2320 µM); against Aspergillus niger it was 100 µg/mL (≈ 232 µM). For the same compound, in the experiment with Streptococcus pyogenes (read-out: MIC), the MIC came to 62.5 µg/mL (≈ 145 µM).

Regarding `COc1ccc(C2SCC(=O)N2c2ccccc2-c2nc3ccc(C)cc3[nH]2)cc1OC` (stereo unspecified), the minimum inhibitory concentration (MIC) turned out to be 250 µg/mL (≈ 561 µM) against Pseudomonas aeruginosa; 100 µg/mL (≈ 224 µM) in the experiment on Escherichia coli; 100 µg/mL (≈ 224 µM) with Staphylococcus aureus; 500 µg/mL (≈ 1120 µM) in the experiment with Candida albicans; 1000 µg/mL (≈ 2240 µM) in the experiment on Aspergillus clavatus; 1000 µg/mL (≈ 2240 µM) in the experiment with Aspergillus niger. For the same compound, in the experiment with Streptococcus pyogenes (read-out: MIC), the MIC is 1000 µg/mL (≈ 2240 µM).

With `Cc1ccc2nc(-c3ccccc3N3C(=O)CSC3c3ccc(F)cc3)[nH]c2c1` (stereo unspecified), the MIC was 250 µg/mL (≈ 620 µM) against Pseudomonas aeruginosa; 250 µg/mL (≈ 620 µM) with Escherichia coli; 250 µg/mL (≈ 620 µM) in the experiment with Staphylococcus aureus; 500 µg/mL (≈ 1240 µM) against Candida albicans; 1000 µg/mL (≈ 2480 µM) in the experiment with Aspergillus clavatus; 500 µg/mL (≈ 1240 µM) with Aspergillus niger. The MIC in the experiment with Streptococcus pyogenes (read-out: MIC) came out at 250 µg/mL (≈ 620 µM).

For the compound `Cc1ccc2nc(-c3ccccc3N3C(=O)CSC3c3ccc([N+](=O)[O-])cc3)[nH]c2c1` (stereo unspecified), the MIC against Pseudomonas aeruginosa was determined as 250 µg/mL (≈ 581 µM); against Escherichia coli, 500 µg/mL (≈ 1160 µM); with Staphylococcus aureus, 250 µg/mL (≈ 581 µM); in the experiment with Candida albicans it was 500 µg/mL (≈ 1160 µM); in the experiment on Aspergillus clavatus, 1000 µg/mL (≈ 2320 µM); against Aspergillus niger, 1000 µg/mL (≈ 2320 µM). Further, the MIC in the experiment with Streptococcus pyogenes (read-out: MIC) amounted to 250 µg/mL (≈ 581 µM).

With `Cc1ccc2nc(-c3ccccc3N3C(=O)CSC3c3ccc(O)cc3)[nH]c2c1` (stereo unspecified), the minimum inhibitory concentration (MIC) with Pseudomonas aeruginosa was found to be 250 µg/mL (≈ 623 µM); against Escherichia coli, 125 µg/mL (≈ 311 µM); in the experiment with Staphylococcus aureus it was 500 µg/mL (≈ 1250 µM); against Candida albicans it was 1000 µg/mL (≈ 2490 µM); in the experiment on Aspergillus clavatus, 1000 µg/mL (≈ 2490 µM); against Aspergillus niger, 1000 µg/mL (≈ 2490 µM). Further, in the experiment on Streptococcus pyogenes (read-out: MIC), the minimal inhibitory concentration (MIC) turned out to be 500 µg/mL (≈ 1250 µM).

Take `Cc1ccc2nc(-c3ccccc3N3C(=O)CSC3c3ccccc3[N+](=O)[O-])[nH]c2c1` (stereo unspecified): the MIC came out at 250 µg/mL (≈ 581 µM) in the experiment on Pseudomonas aeruginosa; 500 µg/mL (≈ 1160 µM) with Escherichia coli; 1000 µg/mL (≈ 2320 µM) with Staphylococcus aureus; 1000 µg/mL (≈ 2320 µM) in the experiment on Candida albicans; 1000 µg/mL (≈ 2320 µM) in the experiment with Aspergillus clavatus; 1000 µg/mL (≈ 2320 µM) with Aspergillus niger. In addition, the MIC with Streptococcus pyogenes (read-out: MIC) was 250 µg/mL (≈ 581 µM).

On to `Cc1ccc2nc(-c3ccccc3N3C(=O)CSC3c3ccc(Cl)cc3Cl)[nH]c2c1` (stereo unspecified), for which the MIC is 100 µg/mL (≈ 220 µM) in the experiment with Pseudomonas aeruginosa; 62.5 µg/mL (≈ 138 µM) in the experiment with Escherichia coli; 1000 µg/mL (≈ 2200 µM) with Staphylococcus aureus; 250 µg/mL (≈ 550 µM) against Candida albicans; 500 µg/mL (≈ 1100 µM) against Aspergillus clavatus; 500 µg/mL (≈ 1100 µM) against Aspergillus niger. Further, the MIC with Streptococcus pyogenes was 500 µg/mL (≈ 1100 µM).

As for `Cc1ccc2nc(-c3ccccc3N3C(=O)CSC3c3cccc(O)c3)[nH]c2c1` (stereo unspecified), the MIC against Pseudomonas aeruginosa was determined as 250 µg/mL (≈ 623 µM); with Escherichia coli, 500 µg/mL (≈ 1250 µM); with Staphylococcus aureus, 250 µg/mL (≈ 623 µM); against Candida albicans, 500 µg/mL (≈ 1250 µM); with Aspergillus clavatus, 100 µg/mL (≈ 249 µM); in the experiment with Aspergillus niger, 1000 µg/mL (≈ 2490 µM). The MIC in the experiment on Streptococcus pyogenes (read-out: MIC) came out at 125 µg/mL (≈ 311 µM).

Regarding `Cc1ccc2nc(-c3ccccc3N3C(=O)CSC3c3ccccc3Cl)[nH]c2c1` (stereo unspecified), the minimum inhibitory concentration (MIC) is 1000 µg/mL (≈ 2380 µM) against Pseudomonas aeruginosa; 1000 µg/mL (≈ 2380 µM) with Escherichia coli; 500 µg/mL (≈ 1190 µM) in the experiment with Staphylococcus aureus; 1000 µg/mL (≈ 2380 µM) in the experiment with Candida albicans; 1000 µg/mL (≈ 2380 µM) against Aspergillus clavatus; 1000 µg/mL (≈ 2380 µM) against Aspergillus niger. Moreover, the MIC with Streptococcus pyogenes (read-out: MIC) amounted to 1000 µg/mL (≈ 2380 µM).

For the compound `COc1cc(C2SCC(=O)N2c2ccccc2-c2nc3ccc(C)cc3[nH]2)cc(OC)c1OC` (stereo unspecified), the MIC was found to be 250 µg/mL (≈ 526 µM) in the experiment on Pseudomonas aeruginosa; 500 µg/mL (≈ 1050 µM) in the experiment with Escherichia coli; 500 µg/mL (≈ 1050 µM) against Staphylococcus aureus; 500 µg/mL (≈ 1050 µM) in the experiment with Candida albicans; 1000 µg/mL (≈ 2100 µM) in the experiment on Aspergillus clavatus; 1000 µg/mL (≈ 2100 µM) in the experiment on Aspergillus niger. Besides, in the experiment on Streptococcus pyogenes (read-out: MIC), the MIC turned out to be 250 µg/mL (≈ 526 µM).
